One test addresses T1, Cdk2(H71C) (C177A) (Homo sapiens, UniProt P24941, C177A/H71C).
T1 construct: poly-histidine; made in house; host or cells: E. coli
As to the kind of experiment: Kinetic thiol consumption assay with Cdk2 mutant H71C. It is filed as binding. The arrangement: key to Rate enhancement, Cdk2 H71C: rate constant with Cdk2 ÷ rate constant with model thiol (fold). The note with it: additional mutation C177A; for Rate constant with Cdk2 H71C: Protein: Cdk2, cysteine position H71C, in h^-1. A digest of the protocol: (§1)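 His-tagged single-surface-cysteine Cdk2 mutants (C177A background) from E. coli, 5 μM in degassed phosphate buffer pH 8, pre-treated with immobilized TCEP beads. Fluorescence (ex/em 380/470 nm) read after 1 h at room temperature, normalized to DMSO/thiol-only control; first-order decay fits gave rate constants, divided by model-thiol rate for rate enhancement.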

The next test addresses T2, Cdk2(S181C) (C177A) (Homo sapiens, UniProt P24941, C177A/S181C).
T2 construct: poly-histidine; made in house; host or cells: E. coli
Briefly: Kinetic thiol consumption assay with Cdk2 mutant S181C. It is filed as binding. Also noted: key to Rate enhancement, Cdk2 S181C: rate constant with Cdk2 ÷ rate constant with model thiol (fold). As to conditions: additional mutation C177A; for Rate constant with Cdk2 S181C: Protein: Cdk2, cysteine position S181C, in h^-1. A digest of the protocol: as §1

The target of test [1] is T3, human cyclin-dependent kinase 2 (Cdk2) (Homo sapiens, UniProt P24941).
T3 construct: poly-histidine; made in house; host or cells: E. coli
Briefly: Kinetic thiol consumption assay with wild type Cdk2 (C177). It is filed as binding. The arrangement: key to Rate enhancement, Cdk2 WT: k(Cdk2) divided by k(model thiol); Rate constant with Cdk2 (k(Cdk2)): unit not given here. As to conditions: for Rate constant with Cdk2 (k(Cdk2)): 500 μM ligand, 5 μM thiol, phosphate buffer pH 8; for Rate enhancement, Cdk2 WT: no additional mutations; for Rate constant with Cdk2 WT: Protein: Cdk2, cysteine position WT, in h^-1; for k(Cdk2)/k(GSH) rate enhancement: model thiol glutathione. A digest of the protocol:
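His-tagged human Cdk2 (single surface cysteine C177), expressed in E. coli, or a model thiol at 5 μM in degassed phosphate buffer pH 8 was pre-treated with immobilized TCEP beads (2% v/v) before acrylamide addition. Fluorescence (ex/em 380/470 nm) was read after 1 h at room temperature, normalized to DMSO/thiol-only control and plotted versus time.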

The target of the next test is T4, Cdk2(R122C) (C177A) (Homo sapiens, UniProt P24941, C177A/R122C).
T4 construct: poly-histidine; made in house; host or cells: E. coli
Briefly: Kinetic thiol consumption assay with Cdk2 mutant R122C. As to conditions: additional mutation C177A; for Rate constant with Cdk2 R122C: Protein: Cdk2, cysteine position R122C, in h-1. The test is classed as binding. The arrangement: key to Rate enhancement, Cdk2 R122C: rate constant with Cdk2 ÷ rate constant with model thiol (fold). The method, boiled down: as §1

The next test addresses T5, Cdk2(C177A, F80C) (Homo sapiens, UniProt P24941, C177A/F80C).
T5 construct: poly-histidine; made in house; host or cells: E. coli
As to the kind of experiment: Kinetic thiol consumption assay with Cdk2 mutant F80C, incl. kobs versus concentration (Kd, k2). The test is classed as binding. The arrangement: key to Rate enhancement, Cdk2 F80C: Cdk2 rate constant divided by model-thiol rate constant. As to conditions: additional mutation C177A; for Rate constant with Cdk2 F80C: Protein: Cdk2, cysteine position F80C, in h^-1. A digest of the protocol: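 His-tagged Cdk2(C177A/F80C) from E. coli or model thiol, 5 μM in degassed phosphate buffer pH 8 with TCEP beads, reacted with acrylamide ligands; fluorescence (ex/em 380/470 nm) normalized to DMSO control and fitted to first-order decay for kobs. Kd and k2 obtained from hyperbolic fit of kobs versus ligand concentration.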

The target in another test is T6, Cdk2(N272C) (C177A) (Homo sapiens, UniProt P24941, C177A/N272C).
T6 construct: poly-histidine; made in house; host or cells: E. coli
As to the kind of experiment: Kinetic thiol consumption assay with Cdk2 mutant N272C. It is filed as binding. The arrangement: key to Rate enhancement, Cdk2 N272: rate constant with Cdk2 ÷ rate constant with model thiol (fold). As to conditions: for Rate enhancement, Cdk2 N272: Cdk2 N272, additional mutation C177A; for Rate constant with Cdk2 N272C: Protein: Cdk2, cysteine position N272C, additional mutation C177A, in h^-1. A digest of the protocol:
as §1

A short description of test [2]: Kinetic thiol consumption assay with model thiol glutathione. The test is classed as physicochemical. The arrangement: Rate constant with glutathione (k(GSH)): unit not given here. As to conditions: for Rate constant with glutathione (k(GSH)): 500 μM ligand, 5 μM thiol, phosphate buffer pH 8; for Rate constant with Glutathione: Protein: Glutathione, cysteine position NA, in h-1. A digest of the protocol: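 First, 5 μM glutathione in degassed phosphate buffer (pH 8) receives immobilized TCEP beads (2% v/v). Then acrylamide is added and plates incubate 1 h at room temperature. Finally, fluorescence (380/470 nm) is normalized and fitted to first-order decay for rate constants.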

In the next test the target is T7, Cdk2(S276C) (C177A) (Homo sapiens, UniProt P24941, C177A/S276C).
T7 construct: poly-histidine; made in house; host or cells: E. coli
Briefly: Kinetic thiol consumption assay with Cdk2 mutant S276C. The test is classed as binding. The arrangement: key to Rate enhancement, Cdk2 S276C: rate constant with Cdk2 ÷ rate constant with model thiol (fold). The note with it: additional mutation C177A; for Rate constant with Cdk2 S276C: Protein: Cdk2, cysteine position S276C, in h^-1. The method, boiled down: as §1

The next test addresses T8, Cdk2(T182C) (C177A) (Homo sapiens, UniProt P24941, C177A/T182C).
T8 construct: poly-histidine; made in house; host or cells: E. coli
Briefly: Kinetic thiol consumption assay with Cdk2 mutant T182C. It is filed as binding. The arrangement: key to Rate enhancement, Cdk2 T182C: rate constant with Cdk2 ÷ rate constant with model thiol (fold). The note with it: additional mutation C177A; for Rate constant with Cdk2 T182C: Protein: Cdk2, cysteine position T182C, in h^-1. The method, boiled down:
as §1

From patent US11415579B2, “Assay for measuring a rate of reaction between a target and a ligand candidate” (Imperial College Innovations Ltd., priority 2016, dated 2022) come the findings set out here.

Turning to `C=CC(=O)N1CCCC1CC1CC2CCC1C2` (stereo not shown) [CA-087], on Cdk2(H71C) (C177A), the “Rate enhancement, Cdk2 H71C” value is given as 35.53 and the “Rate constant with Cdk2 H71C” value is listed as 0.3006. In addition, on Cdk2(S181C) (C177A), the “Rate enhancement, Cdk2 S181C” value was determined as 0.6457 and the “Rate constant with Cdk2 S181C” value is given as 0.005463. Further, in test [1], the “Rate constant with Cdk2 (k(Cdk2))” value turned out to be 0.00508; the “Rate enhancement, Cdk2 WT” value worked out at 1.059; the “Rate constant with Cdk2 WT” value is listed as 0.00896; the “k(Cdk2)/k(GSH) rate enhancement” value is listed as 0.9957. Also, at Cdk2(R122C) (C177A), the “Rate enhancement, Cdk2 R122C” value is on record as 0.319 and the “Rate constant with Cdk2 R122C” value came to 0.002699. At Cdk2(C177A, F80C), the “Rate enhancement, Cdk2 F80C” value was determined as 0.4785 and the “Rate constant with Cdk2 F80C” value is reported as 0.004048. Besides, on Cdk2(N272C) (C177A), the “Rate enhancement, Cdk2 N272” value was found to be 0.3045 and the “Rate constant with Cdk2 N272C” value turned out to be 0.002576. For the same compound, in [2], the “Rate constant with glutathione (k(GSH))” value is on record as 0.0051 and the “Rate constant with Glutathione” value is reported as 0.00846. For the same compound, on Cdk2(S276C) (C177A), the “Rate enhancement, Cdk2 S276C” value is 0.7322 and the “Rate constant with Cdk2 S276C” value is given as 0.006194. Moreover, at Cdk2(T182C) (C177A), the “Rate enhancement, Cdk2 T182C” value is recorded as 6.465 and the “Rate constant with Cdk2 T182C” value was 0.05469.

Turning to `C=CC(=O)N(c1cccc2ncccc12)C1CCC1` [CA-032/228], on Cdk2(H71C) (C177A), the “Rate enhancement, Cdk2 H71C” value turned out to be 15.36 and the “Rate constant with Cdk2 H71C” value was found to be 0.2513. Also, at Cdk2(S181C) (C177A), the “Rate enhancement, Cdk2 S181C” value is 1.043 and the “Rate constant with Cdk2 S181C” value is 0.01707. Also, in [1], the “Rate enhancement, Cdk2 WT” value was determined as 1.405 and the “Rate constant with Cdk2 WT” value amounted to 0.02299. Also, at Cdk2(R122C) (C177A), the “Rate enhancement, Cdk2 R122C” value turned out to be 1.534 and the “Rate constant with Cdk2 R122C” value is 0.02509. Moreover, at Cdk2(C177A, F80C), the “Rate enhancement, Cdk2 F80C” value amounted to 2.232 and the “Rate constant with Cdk2 F80C” value is recorded as 0.03651. For the same compound, at Cdk2(N272C) (C177A), the “Rate enhancement, Cdk2 N272” value worked out at 3.007 and the “Rate constant with Cdk2 N272C” value is 0.04919. The “Rate constant with Glutathione” value in [2] was 0.01636. At Cdk2(S276C) (C177A), the “Rate enhancement, Cdk2 S276C” value stood at 1.851 and the “Rate constant with Cdk2 S276C” value worked out at 0.03029. On Cdk2(T182C) (C177A), the “Rate enhancement, Cdk2 T182C” value came to 14.8 and the “Rate constant with Cdk2 T182C” value turned out to be 0.2422.

In the case of `C=CC(=O)NC1(C(N)=O)CCCCC1` [EL-1170], on Cdk2(H71C) (C177A), the “Rate enhancement, Cdk2 H71C” value was found to be 0. Besides, at Cdk2(S181C) (C177A), the “Rate enhancement, Cdk2 S181C” value was found to be 0.953 and the “Rate constant with Cdk2 S181C” value was 0.002313. Also, in test [1], the “Rate constant with Cdk2 (k(Cdk2))” value was found to be 0.00308; the “Rate enhancement, Cdk2 WT” value came out at 1.986; the “Rate constant with Cdk2 WT” value was found to be 0.004821; the “k(Cdk2)/k(GSH) rate enhancement” value was 1.271. For the same compound, at Cdk2(R122C) (C177A), the “Rate enhancement, Cdk2 R122C” value came to 0.304 and the “Rate constant with Cdk2 R122C” value is 0.0007379. Also, at Cdk2(C177A, F80C), the “Rate enhancement, Cdk2 F80C” value is 0.5052 and the “Rate constant with Cdk2 F80C” value is on record as 0.001226. At Cdk2(N272C) (C177A), the “Rate enhancement, Cdk2 N272” value is 0.3641 and the “Rate constant with Cdk2 N272C” value stood at 0.0008836. In [2], the “Rate constant with glutathione (k(GSH))” value is reported as 0.00243 and the “Rate constant with Glutathione” value is on record as 0.002427. For the same compound, at Cdk2(S276C) (C177A), the “Rate enhancement, Cdk2 S276C” value worked out at 0.3126 and the “Rate constant with Cdk2 S276C” value came out at 0.0007587. At Cdk2(T182C) (C177A), the “Rate enhancement, Cdk2 T182C” value stood at 0.5731 and the “Rate constant with Cdk2 T182C” value stood at 0.001391.

On to `C=CC(=O)N1CC(OCCN(CC)CC)C1` [CA-145], for which, at Cdk2(H71C) (C177A), the “Rate enhancement, Cdk2 H71C” value amounted to 0. Also, at Cdk2(S181C) (C177A), the “Rate enhancement, Cdk2 S181C” value stood at 2.572 and the “Rate constant with Cdk2 S181C” value is recorded as 0.008117. Further, in [1], the “Rate constant with Cdk2 (k(Cdk2))” value was determined as 0.00205; the “Rate enhancement, Cdk2 WT” value was 0.6483; the “Rate constant with Cdk2 WT” value was 0.002046; the “k(Cdk2)/k(GSH) rate enhancement” value is 0.6425. On Cdk2(R122C) (C177A), the “Rate enhancement, Cdk2 R122C” value came to 0.846 and the “Rate constant with Cdk2 R122C” value was determined as 0.00267. On Cdk2(C177A, F80C), the “Rate enhancement, Cdk2 F80C” value is on record as 0. In addition, at Cdk2(N272C) (C177A), the “Rate enhancement, Cdk2 N272” value amounted to 1.155 and the “Rate constant with Cdk2 N272C” value amounted to 0.003646. In test [2], the “Rate constant with glutathione (k(GSH))” value stood at 0.00318 and the “Rate constant with Glutathione” value came out at 0.003156. For the same compound, the “Rate enhancement, Cdk2 S276C” value at Cdk2(S276C) (C177A) is 0. In addition, on Cdk2(T182C) (C177A), the “Rate enhancement, Cdk2 T182C” value is listed as 1.904 and the “Rate constant with Cdk2 T182C” value was 0.00601.
